In patent EP0773292A1, “Immortalised embryonic hippocampal cells and their use” (BAYER AG, priority 1995, dated 1997):
Read-outs that look alike come from different tables or passages of the source.

How the values were obtained:
Format in all cases: cell-based, murine
HC e/n XVB cells = experiment: Electrophysiology: whole-cell patch-clamp, ligand-activated currents; details: for ligand-activated currents: membrane potential clamped to -70mV; for ligand induced inward currents: differentiated HC e/n XVB cells, AMPA 100µM, NMDA, kainate, glutamate 1mM
Procedure: (§1) Electrophysiological setup: Membrane currents were measured with the patch-clamp technique in the whole-cell recording configuration (Hamill et al. 1981, Pfluegers Arch. 391:85-100). Current signals were amplified with conventional electronics (EPC-9 amplifier, HEKA Elektronik GmbH, Lambrecht, Germany), filtered at 10kHz, and sampled at 5 kHz by an interface connected to an IBM AT-compatible computer system, which also served as a stimulus generator.
(§2) Solutions and electrodes: The standard bathing solution contained (in mM): Nacl 150, KCL 5, MgCl2 1.8, HEPES 5, and glucose 10. In some experiments an equimolar amount of NaCl was replaced by 5mM BaCl2. Recording pipettes had resistances about 5MΩ (Hilgenberg, Malsfeld, Germany). The pipettes contained (in mM): KCL 140, CaCl2 0.5, EGTA 5, MgCl2 2, and HEPES 10. The pH was adjusted to 7.4. In some experiments the pipette solution was designed to minimize the contribution of voltage-activated currents. In this case, investigating the ligand-activated currents, the pipette solution contained (in mM): CsCl 140, EGTA 10, and HEPES 10.
(§3) Ligands were dissolved in the extracellular saline solution and applied via an U-tube application system. To record ligand-induced currents, the membrane potential was clamped to -70mV. For measurements of voltage-activated currents, cells were held at -70mV and every second the membrane was stepped through a 50 msec. de- or hyperpolarising test pulse to a potential between -170 and +20 mV.

HNMMCV13.1.F = experiment: Ca2+-imaging (Fura-2), rise in intracellular calcium; details: for transient rise in intracellular calcium concentration: HNMMCV13.1.F, glutamate 10µM to 10 mM, AMPA, kainic acid, serotonine, dopamine, carbachol up to 1mM, NMDA up to 500µM
Procedure: (§4) Fluorescent Probe: Dynamic changes of intracellular calcium concentration were measured using the Fura-2 fluorescent probe (Roe et al. 1990, Cell Calcium 11:63-73). This fluorescent dye was chosen because of its selectivity, high quantum yield and extinction co-efficient. Fura-2 permeates the living cell as a acetoxymethylester and becomes trapped within the cell after hydrolysis by intracellular esterases. The calcium-sensitive free acid of Fura-2 is able to bind to calcium ions inside the cell. Fura-2 has an excitation maximum at 380 nm and the Fura2/calcium complex peaks at 340 nm. A change in intracellular calcium concentration was calculated by recording fluorescent video images at wavelengths of 340nm and 380nm excitation and 510nm emission and by dividing the grey values of the digitized video images of 380nm from 340nm.
(§5) Loading cells with Fura-2: A stock solution with 2mM Fura-2-acetoxymethylester in dimethylsulfoxide (DMSO) was diluted to 5-10 µM with serum free Minimal Essential Medium (MEM, Gibco) containing 1.5% bovine serum albumin and 5 mM calcium chloride. The cells were incubated in a Falcon 96 well plate for 45-60 minutes at 37°C. Subsequently the cells were washed twice in N-(2-Hydroxyethyl)piperazine-N'-(2-ethanesulfonic acid) (HEPES, 5mM) buffered Tyrode solution (HEPES buffered salt solution containing 130 mM NaCl, 5 mM KCl, 2 mM CaCl2, 1 mM MgCl2, 5mM NaHCO3, 11 mM Glucose).
(§6) Imaging procedure: 100 µl of Tyrode buffer was added to the plate wells and the cells were sequencially exposed to light at 340 nm and 380 nm under a fluorescent microscope (Nikon Diaphot). The exposition time was 100 ms. A series of video images at 3 second intervals was acquired and stored as digitised pictures in the image boards of an image analysis computer (Leica, Quantimet 570). After the acquisition of 8 images the test substances were applied. The grey levels of the cells, which correspond to the fluorescence intensity, were measured in the recorded video images. The ratio was determined by dividing the measured grey levels of the "380 nm images" by the grey levels of the "340 nm images" either from averaged images or from individual cells. For averaged results, the grey levels were measured over the whole images.
(§7) The cells were loaded with Fura 2/AM between day 3 and 7 in culture. A number of agonists were tested for their ability to activate specific receptors on the cell surface which leads to a rise in intracellular calcium. The rise in calcium concentration in the cytoplasm can occur after activation of specific calcium channels in the cell membrane, after activation of neurotransmitter receptors directly coupled to ion channels that are permeable to calcium ions (i.e. NMDA or AMPA type glutamate receptors), or by activation of receptors, which propagate the signal through the activation of specific G-proteins, which regulate the activity of different enzymes in the interior of the cell (Connor, Cell Calcium 14 (1993), 185-200; Crouch and Hendry, Medical Res. Rev. 13 (1993), 105-123). The activation of phospholipase C generates the second messengers diacylglycerol and inositoltriphosphate from phospholipids in the cell membrane. The binding of inositoltriphosphate to receptors localised on internal vesicles which store calcium ions leads to a transient rise in the concentration of calcium ions in the cytoplasm (Berridge, M.J. 1993, Nature 361: 315-325).

HNMMCV11.2.0 = experiment: as above; details: HNMMCV11.2.0; glutamate 10µM to 10 mM, AMPA, kainic acid, serotonine, dopamine, carbachol up to 1mM, NMDA up to 500µM
Procedure: as §4, §5, §6, §7

HC e/n XV.B cells = experiment: as above
Procedure: as §4, §5, §6, §7

HNMMCV13.1.E = experiment: as above; details: HNMMCV13.1.E; glutamate 10µM to 10 mM, AMPA, kainic acid, serotonine, dopamine, carbachol up to 1mM, NMDA up to 500µM
Procedure: as §4, §5, §6, §7

HNMMCV14.1.A [1] = experiment: as above; details: HNMMCV14.1.A; glutamate 10µM to 10 mM, AMPA, kainic acid, serotonine, dopamine, carbachol up to 1mM, NMDA up to 500µM
Procedure: as §4, §5, §6, §7

HNMMCV14.1.A [2] = experiment: Electrophysiology: whole-cell patch-clamp, ligand-activated currents; details: 14.1.A; membrane potential clamped to -70mV
Procedure: as §1, §2, §3

[3] = system: metabotropic glutamate receptor(s) (mGluR) expressed by HNMMCV14.1A cells; experiment: Second messenger: phosphoinositide hydrolysis, accumulation of 3H-inositol phosphates
Procedure: Phosphoinositide hydrolysis was determined by measuring the accumulation of ^3H-inositol phosphates. The cells were plated in 48-well plates (Costar) at a density of 10000 cells per well and incubated for 4-5 days at 37°C, 7% CO2. Then the cells were labeled by incubation with 4 µCi of myo-2-^3H-inositol per ml medium (specific activity: […]: Amersham). After 24 h LiCl (10 mM final concentration) was added to the cells for 1 h. Agonists were then added at the concentrations indicated. The incubation was stopped after 1 h by replacing the medium with 200 µl ice-cold methanol. 400 µl of destilled water was added and the sample was directly applied to AG-1X8 ion exchange columns (AG-1X8 resin: BioRad). Free inositol and glycerophosphoryl-inositol were washed away with 16 ml destilled water followed by 10 ml 5 mM disodium-tetraborate, 60 mM sodium formate. Total ^3H-inositol phosphates (IP1, IP2, IP3) were eluted with 7 ml of 100 mM formic acid, 1 M ammonium formate. Radioactivity of the eluted ^3H-inositol phosphates was determined by liquid scintillation counting after addition of 13 ml liquid scintillation cocktail (Ultima Gold: Canberra Packard). Measurements were performed in triplicates for each experimental point. Untreated controls were set as 100% and the other values calculated in relation to this.
The columns were prepared as follows: 1 ml pipet tips were filled with one glass bead (Roth) per tip before adding 500 µl AG-1X8 resin. The resin was compressed with air and 270 µl seasand was applied. Until use they were stored at 4°C.

[4] = HC e/n XV.B cells, state of differentiation not given, up to 1mM
[5] = differentiated HC e/n XV.B cells
[6] = HNMMCV14.1A cells, result in words

Structure (SMILES)	ligand-activated currents (HC e/n XVB cells; XV. B/ - EGF (differentiated))	transient rise in intracellular calcium concentration (HNMMCV13.1.F)	transient rise in intracellular calcium concentration (HNMMCV11.2.0)	transient rise in intracellular calcium concentration (HNMMCV13.1.E)	transient rise in intracellular calcium concentration (HNMMCV14.1.A [1])	other results
Cc1onc(O)c1CC(N)C(=O)O (stereo not shown) [AMPA, ∝-amino-3-hydroxy-5-methyl-4-isoxazol-propionic acid]	+ (+: 10-30% positive cells)	did not result in a transient rise in intracellular calcium concentrations	did not result in a transient rise in intracellular calcium concentrations	did not result in a transient rise in intracellular calcium concentrations	did not result in a transient rise in intracellular calcium concentrations	ligand induced inward currents (HC e/n XVB cells): evoked responses with different peak amplitudes; transient rise in intracellular calcium concentration (HC e/n XV.B cells; undifferentiated HC e/n XV.B cells, AMPA, kainate up to 1mM, NMDA up to 500µM): did not result in a transient rise in intracellular calcium concentrations
CC(=O)OCC[N+](C)(C)C [Acetylcholine, acetylcholine]	-					ligand-activated currents (HNMMCV14.1.A [2]): + (+: 10-30% positive cells)
N#Cc1cc2[nH]c(=O)c(=O)[nH]c2cc1[N+](=O)[O-] [CNQX, 6-nitro-7-cyanochinoxalin-2,3-dione]						antagonism of the calcium signals recorded after application of glutamate (HNMMCV13.1.F; glutamate 100µM, CNQX 100µM, cell clone taken from Table 5 (13.1.F)): not antagonised
C[N+](C)(C)CCOC(N)=O [Carbachol]		not in any other cell line tested	not in any other cell line tested	not in any other cell line tested		transient rise in intracellular calcium concentration (HC e/n XV.B cells; [4]): reproducible signal
NCCc1ccc(O)c(O)c1 [Dopamine, dopamine]		did not lead to a specific signal	did not lead to a specific signal	did not lead to a specific signal	did not lead to a specific signal	transient rise in intracellular calcium concentration (HC e/n XV.B cells; [4]): did not lead to a specific signal
NCCCC(=O)O [GABA]	+++ (+++: 70-100% positive cells)					reversal potential of the ligand-activated current (HC e/n XVB cells; HC e/n XVB cells, membrane stepped from -100 to +40): ~+10 mV; ligand-activated currents (HC e/n XVB cells; XV. B (with EGF, undifferentiated)): + (+: 10-30% positive cells); ligand induced inward currents (HC e/n XVB cells): prominent resonses; ligand-activated currents (HNMMCV14.1.A [2]): ++ (++: 30-70% positive cells)
N[C@H](C(=O)O)[C@H]1C[C@@H]1C(=O)O [L-CCG 1, L-carboxycyclopropylglycin]		strong	strong	strong	strong	transient rise in intracellular calcium concentration (HC e/n XV.B cells; [5]): weak signals
CN[C@H](CC(=O)O)C(=O)O [NMDA, N-methyl-D-aspartate]	++ (++: 30-70% positive cells)					
N[C@@H](Cn1oc(=O)[nH]c1=O)C(=O)O [Quisqualate, quisqualate]						maximum responses (inositolphosphate accumulation) compared with glutamate ([3]; HNMMCV14.1A cells): slightly weaker; effect on inositolphosphate accumulation [3, 6]: concentration dependent increase
NCCc1c[nH]c2ccc(O)cc12 [Serotonine]		did not lead to a specific signal	did not lead to a specific signal	did not lead to a specific signal	did not lead to a specific signal	transient rise in intracellular calcium concentration (HC e/n XV.B cells; [4]): did not lead to a specific signal
NC(C(=O)O)c1cc(O)no1 (stereo not shown) [ibotenate]						effect on inositolphosphate accumulation [3]: concentration dependent increase; maximum responses (inositolphosphate accumulation) compared with glutamate [3]: slightly weaker
N[C@@]1(C(=O)O)CC[C@@H](C(=O)O)C1 [t-ACPD, 1S3R-aminocyclopentane-1,3-dicarboxylate]		strong	strong	strong	strong	maximum responses (inositolphosphate accumulation) compared with glutamate ([3]; HNMMCV14.1A cells): slightly weaker; effect on inositolphosphate accumulation [3, 6]: concentration dependent increase; transient rise in intracellular calcium concentration (HC e/n XV.B cells; [5]): weak signals
